Source: ChEMBL document CHEMBL5356990, “Overview of CFTR activators and their recent studies for dry eye disease: a review” (RSC Med Chem, 2023)

Legend:
[1] = molecular target: T1, Cystic fibrosis transmembrane conductance regulator (Homo sapiens, UniProt P13569); assay: Activation of human CFTR expressed in rat FRT cells; assay type: cell-based
[2] = (§1) In vivo activation CFTR expressed in wild-type CD1 mouse assessed as hyperpolarization of ocular surface by measuring potential difference at 1 to 10 uM; assay type: functional; conditions: dose 1-10 µM
[3] = molecular target: T1, Cystic fibrosis transmembrane conductance regulator; assay: Activation of wildtype CFTR in human Calu-3 cells; assay type: cell-based
[4] = molecular target: T1, Cystic fibrosis transmembrane conductance regulator; assay: Activation of human wildtype CFTR expressed in rat FRT cells by patch clamp analysis; assay type: cell-based
[5] = molecular target: T1, Cystic fibrosis transmembrane conductance regulator; assay: Activation of human wildtype CFTR
Mus musculus = assay: as §1; assay type: functional; conditions: dose 1-10 µM
[6] = molecular target: T1, Cystic fibrosis transmembrane conductance regulator; assay: Activation of wildtype CFTR (unknown origin) expressed in CHO cells; assay type: cell-based
[7] = molecular target: T1, Cystic fibrosis transmembrane conductance regulator; assay: Binding affinity at human wildtype CFTR assessed as inhibition constant by fluorescence based analysis
[8] = molecular target: T1, Cystic fibrosis transmembrane conductance regulator; assay: Activation of CFTR (unknown origin)
[9] = tested on: Cystic fibrosis transmembrane conductance regulator (Homo sapiens), P13569 [G551D]; assay: Activation of CFTR G551D mutant (unknown origin); conditions: filed as opener
Chain of Cystic fibrosis transmembrane conductance regulator (Homo sapiens), P13569 [G551D] (P13569 whole entry G551D): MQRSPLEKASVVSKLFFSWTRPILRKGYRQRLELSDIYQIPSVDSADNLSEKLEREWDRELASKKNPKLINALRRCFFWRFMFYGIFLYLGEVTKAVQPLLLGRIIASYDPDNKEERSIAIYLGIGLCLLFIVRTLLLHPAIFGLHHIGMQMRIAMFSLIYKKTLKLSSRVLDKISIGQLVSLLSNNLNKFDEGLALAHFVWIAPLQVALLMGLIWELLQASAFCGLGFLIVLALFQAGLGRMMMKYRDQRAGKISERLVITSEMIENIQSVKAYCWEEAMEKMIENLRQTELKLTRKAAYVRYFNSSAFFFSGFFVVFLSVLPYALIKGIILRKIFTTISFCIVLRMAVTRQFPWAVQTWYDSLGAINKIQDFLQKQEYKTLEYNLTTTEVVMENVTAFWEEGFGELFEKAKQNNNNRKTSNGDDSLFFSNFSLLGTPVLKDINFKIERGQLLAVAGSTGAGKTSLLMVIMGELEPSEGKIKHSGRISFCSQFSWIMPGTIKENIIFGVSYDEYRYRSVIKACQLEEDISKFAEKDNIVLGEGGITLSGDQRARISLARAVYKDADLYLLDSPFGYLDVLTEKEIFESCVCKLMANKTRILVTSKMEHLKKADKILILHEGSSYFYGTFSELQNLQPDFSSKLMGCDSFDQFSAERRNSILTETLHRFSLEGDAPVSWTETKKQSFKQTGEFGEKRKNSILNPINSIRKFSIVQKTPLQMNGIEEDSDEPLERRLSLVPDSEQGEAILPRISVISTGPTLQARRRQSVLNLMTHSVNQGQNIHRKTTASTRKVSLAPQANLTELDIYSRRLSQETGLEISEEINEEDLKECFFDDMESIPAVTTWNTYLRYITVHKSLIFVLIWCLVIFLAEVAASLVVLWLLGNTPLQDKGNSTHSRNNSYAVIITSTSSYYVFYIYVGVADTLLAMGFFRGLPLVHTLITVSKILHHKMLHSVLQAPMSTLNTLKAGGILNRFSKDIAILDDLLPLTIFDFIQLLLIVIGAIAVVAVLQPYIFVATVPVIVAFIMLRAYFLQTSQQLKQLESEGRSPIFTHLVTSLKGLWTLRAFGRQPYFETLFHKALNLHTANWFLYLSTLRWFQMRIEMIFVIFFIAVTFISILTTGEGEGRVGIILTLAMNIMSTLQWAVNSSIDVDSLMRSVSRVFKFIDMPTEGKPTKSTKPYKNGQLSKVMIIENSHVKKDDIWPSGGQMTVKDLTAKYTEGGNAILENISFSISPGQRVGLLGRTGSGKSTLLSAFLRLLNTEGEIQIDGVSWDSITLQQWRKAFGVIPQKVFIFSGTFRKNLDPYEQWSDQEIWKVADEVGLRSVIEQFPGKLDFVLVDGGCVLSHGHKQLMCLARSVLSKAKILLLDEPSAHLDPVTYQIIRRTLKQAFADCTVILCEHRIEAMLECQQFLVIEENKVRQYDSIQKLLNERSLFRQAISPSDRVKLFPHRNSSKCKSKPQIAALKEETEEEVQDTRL

T1 sequence (P13569 whole entry): as the sequence (P13569 whole entry G551D) above, with D551G counted along it

Row | EC50 [1] [nM] | SMILES | Activity [2] [mV] | further results
1 | 340 | COc1ccccc1CC(=O)Nc1nnc(Cc2ccc(OC)c(OC)c2)s1 | -9.9 | 
2 | 385 | O=C(c1cccs1)N1N=C(c2ccccc2)CC1c1ccccc1[N+](=O)[O-] (stereo unspecified) | -4.1 | 
3 | 400 | CNc1nc(Nc2cccc([N+](=O)[O-])c2)nc(OCC(F)(F)F)n1 | -7.4 | 
4 | 332 | Cc1cc(C)cc(/N=C2/NC(=O)/C(=C/c3ccc(O)cc3)S2)c1 | -8.6 | 
5 |  | CC(C)Cn1c(=O)n(C)c(=O)c2[nH]cnc21 [ISOBUTYLMETHYLXANTHINE] |  | EC50 [3]: 45000 nM
6 | 138 | Nc1ccc([N+](=O)[O-])cc1-c1nc2ccccc2n(Cc2ccccc2)c1=O | -9.1 | EC50 [4]: ~200 nM
7 |  | CNc1nc(Nc2ccccc2)nc(OCC(F)(F)C(F)F)n1 |  | EC50 [5]: ~30 nM
8 |  | CC(C)(C)c1cc(C(C)(C)C)c(NC(=O)c2c[nH]c3ccccc3c2=O)cc1O |  | Activity (Mus musculus): -1.8 mV
9 | 377 | CCOc1ccccc1CC(=O)Nc1nnc(Cc2ccc(OC)c(OC)c2)s1 | -3.4 | 
10 |  | CC(C)Cn1c(=O)c2[nH]cnc2n(C)c1=O |  | EC50 [3]: 100000 nM
11 |  | CCCn1cnc2c1N=CN1C2=N[C@](C)(C(=O)O)[C@@H](O)[C@@]1(C)O |  | EC50 [6]: 2100 nM
12 |  | O=c1cc(-c2ccc(O)cc2)oc2cc(O)cc(O)c12 [APIGENIN] |  | Ki [7]: 4800 nM
13 |  | CCCn1cnc2c1N=CN1C2=N[C@](C)(C(=O)O)[C@H](O)[C@@]1(C)O |  | EC50 [6]: 2900 nM
14 | 2000 | CC/N=C1\S/C(=C\c2ccc3c(c2)OCO3)C(=O)N1CC | -2.5 | 
15 | 685 | COc1ccc(Cc2nnc(NC(=O)Cc3cccs3)s2)cc1OC | -2.5 | 
16 | 571 | COc1ccc(Cc2nnc(NC(=O)Cc3c(F)cccc3Cl)s2)cc1OC | -3.1 | 
17 |  | CC(C)c1ccc(NC(=O)[C@H](c2ccccc2)N(C)C(=O)Cc2c[nH]c3ccccc23)cc1 |  | EC50 [8]: 70 nM
18 |  | O=c1cc(-c2ccncc2)oc2c1cc(-c1ccco1)c1ccccc12 |  | Ki [7]: 1700 nM
19 |  | CCCCc1c(-c2ccc(O)cc2)[nH]c2nccnc12 |  | Activity [9]: 1.5 nM
20 |  | CNc1nc(Nc2ccc([N+](=O)[O-])cc2)nc(OCC(F)(F)C(F)F)n1 | -10 | 
21 |  | CCN(CC)c1nc(Nc2ccccc2)nc(OC(C(F)(F)F)C(F)(F)F)n1 | -8.5 | 
